TGI data for eight molecules are collected here from PubChem BioAssay (NCI).

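Tested at 5 concentrations; 48 h exposure; 96-well plates; endpoints linearly interpolated, else capped at highest concentration. The concentration for full growth arrest is given as TGI.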

Common to all, as to test: inhibition of tumour cell growth, NCI panel, 48 h
The test system of assay [1] is SN12C renal.
The subject of assay [2] is UACC-257 melanoma.
For assay [3], the system named is HL-60(TB) leukemia.
Assay [4] has as its system UACC-62 melanoma.
Assay [5] deals with CCRF-CEM leukemia.
The subject of assay [6] is HCC-2998 colon.
The test system of assay [7] is SK-MEL-5 melanoma.
Assay [8] relates to COLO 205 colon.
Assay [9] concerns IGROV1 ovarian.
The test system of assay [10] is SW-620 colon.
The subject of assay [11] is MALME-3M melanoma.
Assay [12] concerns OVCAR-3 ovarian.
The subject of assay [13] is KM12 colon.
The test system of assay [14] is TK-10 renal.
The test system of assay [15] is HCT-116 colon.
Assay [16] deals with NCI-H460 lung.
In assay [17] the test system is OVCAR-4 ovarian.

For the molecule `O=C1Cc2nc(CO)c(CO)c(CO)c2CO1`, the TGI in assay [1], in [2], in assay [3], in assay [4], in assay [5] and in assay [6] was over 100 µM in each case. Further, the TGI in [7], in [8], in [9], in assay [10], in assay [11] and in assay [12] was over 100 µM each time. Besides, the TGI in assay [13], in [14], in [15] and in assay [16] was over 100 µM each time.
On to `CN/C=C(\C(=O)c1ccc(OC)c(OC)c1)c1ccc(OC)cc1`, for which the TGI in assay [1] was determined as 31.7 µM; in assay [2], 39.5 µM; in assay [3] it was 32.3 µM; in assay [4], 49.6 µM; in assay [5] it was 23.8 µM; in [7], 35 µM. The TGI was 38.3 µM in assay [8]; over 100 µM in assay [9]; 37.5 µM in assay [10]; 80.1 µM in assay [17]; 29.5 µM in assay [13]; 37.9 µM in assay [14]. The results for the TGI in assay [15] and in assay [16] were 18.1 µM and 63.2 µM, respectively.
On to `c1cc2nnsc2s1`, for which the TGI in assay [1], in assay [2], in [3], in assay [4], in [5] and in assay [6] was over 100 µM in each case. Also, the TGI in [7], in assay [8], in [9], in assay [10], in [17] and in assay [11] was over 100 µM throughout. Also, the TGI in assay [13], in assay [14] and in assay [16] was over 100 µM in each case.
Consider `CC(c1ccc2c(c1)CCC1C2CC2OC23CC=CC(=O)[C@]13C)C1C[C@]2(C)O[C@]2(C)[C@H](O)O1` (some centres undefined), for which the TGI was over 100 µM in assay [1]; 56.8 µM in assay [2]; 71.9 µM in [3]; over 100 µM in assay [4]; over 100 µM in assay [5]; over 100 µM in assay [6]. Besides, the TGI was 28.1 µM in assay [7]; over 100 µM in assay [8]; over 100 µM in assay [9]; over 100 µM in [10]; over 100 µM in [11]; over 100 µM in assay [12]. The TGI in assay [13], in assay [14], in assay [15] and in assay [16] was over 100 µM throughout.
With `COc1ccc(N2C(=O)C3c4[nH]c5ccccc5c4C4CC(C)(C)CC(C)(C)C4C3C2=O)cc1` (centres undefined), the TGI in assay [1] is 33.2 µM; in [2], 46.1 µM; in [3], over 100 µM; in assay [4] it was 27.6 µM; in assay [5], over 100 µM; in assay [6], over 100 µM. Also, the TGI in [7] came out at 41.3 µM; in assay [8], 34.8 µM; in [9], 65.5 µM; in assay [10], 71.7 µM; in assay [17], 26.2 µM; in [11], 36.3 µM. In assay [15], this molecule displayed a TGI of 30.4 µM.
Take `CCOC(=O)C1=C(C)NC2=C(C(=O)N(c3ccccc3)C2c2ccccc2)C1c1ccccc1` (centres undefined): the TGI in assay [1] was 35.8 µM; in assay [2] it was 40.2 µM; in [3], 81.2 µM; in assay [4], 26.7 µM; in [5] it was 58 µM; in [6], 31.7 µM. Also, the TGI is 28.6 µM in assay [7]; 33.5 µM in [8]; 40.8 µM in assay [9]; 47.5 µM in [10]; 33.7 µM in assay [11]; 25.4 µM in [12]. The TGI in assay [13] was 33.7 µM; in assay [14], 45.2 µM; in [15] it was 31.4 µM.
For `CC(=O)OCC1OC(OC2C(COC(C)=O)OC(Sc3ccccc3C)C(OC(C)=O)C2OC(C)=O)C(OC(C)=O)C(OC(C)=O)C1OC(C)=O` (centres undefined), the TGI in [1], in [2], in assay [4], in assay [6], in assay [7] and in [8] was over 100 µM throughout. The TGI in [9], in [10], in assay [17], in assay [11], in assay [13] and in assay [14] was over 100 µM in each case. Also, the TGI in [15] and in [16] was over 100 µM each time.
Regarding `COC(=O)[C@@]1(C)C(=O)CC[C@@H]1C=O`, the TGI in assay [1], in assay [2], in [3], in assay [4], in assay [5] and in assay [7] was over 100 µM in each case. For the same molecule, the TGI in [8], in assay [9], in assay [10], in assay [17], in assay [11] and in assay [12] was over 100 µM in each case. Besides, the TGI in assay [13], in assay [14], in assay [15] and in [16] was over 100 µM in each case.
